Laboratory results published in patent US20110212909A1, “Use of Ginsenoside Compound K in the Preparation of a Medicament for the Prevention and Treatment of Atherosclerosis” (priority 2008, published 2011).
Marks after values point to notes of the source that are not given here.

Key:
Format in all cases: in vivo
Details in all cases: apo E−/− mice, 15 weeks
NF-κB mRNA = assay: Real-time quantitative PCR of NF-κB mRNA in apo E−/− mouse aorta
Description: Total RNA sample of root of aorta of apo E^−/^− mouse: Total RNA samples of root of aorta in each group mouse were extracted, and utilized for analysis of gene expression of various lipid metabolic factors, inflammatory factors, and nucleic transcription factors associated with AS plaque development.

ABCA1 mRNA = assay: Real-time quantitative PCR of ABCA1 mRNA in apo E−/− mouse aorta
Description: (§1) 80 healthy clean grade C57BL/6J apo E^−/^− mice of 10 weeks old, wherein male and female mice were fifty-fifty, weight 20-22 g, were breed and divided into individual cage in sterile laminar flow rack, allowing mice to freely drink water and get food. Mice were raised for 30 weeks by “Western Diet” (routine mouse feed +0.15% cholesterol +21% fat) high fat feed (^60cobalt sterilization radiation treatment), with raising conditions being SPF grade, room temperature maintained at 24° C., relative humidity of 50%, and lighting time of 7: 30-19: 30. Animal house was sterilized by ultraviolet lamp once every two days, in order to maintain sterile environment of laminar flow rack (establishment of animal model of atherosclerosis refers to reference: Barish G D, Atkins A R, Downes M, Olson P, Chong L W, Nelson M, Zou Y H, Hwang H S, Kang H J, Curtiss L, Evans R M, Lee C H. PPARδ regulates multiple proinflammatory pathways to suppress atherosclerosis. Proc Natl Acad Sci, 2008, 105 (11): 4271-4276.).
5 mice of apo E^−/^− mice raised for 15 weeks were randomly selected and sacrificed, root of aorta of which was taken, and replication condition in AS model was observed by HE staining. The remaining mice were randomly divided into 5 groups as follows (n=15): […]
Above drugs were firstly solved in DMSO, then suspended in 0.5% carboxymethylcellulose solution, mixed homogeneously, and then were administered via gavage, once a day. Mice were weighted once a week, and ingestion amounts were recorded, and drug doses were adjusted according to weight, interfering for 15 weeks. […]
• blood fat assay: TC, TG, HDL-C, and LDL-C concentrations in serum were determined by applying Olympus Au2700 fully automatic biochemical appearance. • serum inflammatory markers assay: hs-CRP and sCD40L concentrations were determined by applying double antibody sandwich ELISA, in accordance with ELISA kit operating instruction (hs-CRP ELISA kit bought from Herrenberg company, Germany; sCD40L ELISA kit bought from Bender Medsystems company, Austria). • real-time quantitative PCR analysis was carried out on expression of CD36, perilipin, ABCA1, LXRα, MMP-9 and NF-κ B mRNA in apo E^−/^− mouse aorta (a reference method: Zhang Yiguan, Li Xiaohui, Fan Jishan, Zhang Haigang, Li Shuhui, Liao Wenqiang, Pang Yan, Jia Yi. […] 2007, 27 (11): 1601-1607)0 • morphology index image analysis: When slices were HE stained, under X40 fold ordinary light microscope, artery atherosclerosis plaque area of each incisal surface was determined by “Image Pro Plus 5.0” image analysis software. […] As to Masosn staining, aortic root collagen area (CA) was measured by “Image Pro Plus 5.0” image analysis software, and collagen vessel area ratio (CA/CVA) was calculated. […]

[1] = test system: AS plaque in apo E−/− mouse aorta; assay: Morphology index image analysis of AS plaque at aortic root (HE and MASSON staining)
Description: as §1
5 mice of apo E^−/^− mice raised for 15 weeks were randomly selected and sacrificed, root of aorta of which was taken, and replication condition in AS model was observed by HE staining. The remaining mice were randomly divided into 5 groups as follows (n=15):
A. model group: vehicle; B. ginsenoside compound K low dose group: ginsenoside compound K 12.5 mg/kg/day; C. ginsenoside compound K middle dose group: ginsenoside compound K 25.0 mg/kg/day; D. ginsenoside compound K high dose group: ginsenoside compound K 50.0 mg/kg/day; E. simvastatin control group: simvastatin 10.0 mg/kg/day.
Above drugs were firstly solved in DMSO, then suspended in 0.5% carboxymethylcellulose solution, mixed homogeneously, and then were administered via gavage, once a day. Mice were weighted once a week, and ingestion amounts were recorded, and drug doses were adjusted according to weight, interfering for 15 weeks. All the animal were sacrificed in 30th week.
Tissues of apo E^−/^− mice were sliced for AS plaque pathology: blood of eye sockets venous plexus of apo E−/− mice was sampled before the mice was sacrificed by cervical dislocation, and aorta was fixed by converse infusion of physiological saline comprising 4% paraformaldehyde into left ventricle, and then whole aorta was cut off from root of aorta to terminal end of abdomen aorta. Root of aorta was taken, and embedded routinely by paraffin, and slices of thickness of 5 μm were continuously cut off from root of aorta, and were subjected separately to HE staining, and MASSON staining, and then were utilized for AS plaque morphological index analysis of aortic valve cross section.
Pathological staining: […]sequent 2 pieces of slices were picked up from each incisal surface of sequent paraffin slices of aorta root per mouse, and were separately subjected to HE staining, and MASSON staining, and were observed under light microscope. […]remaining aorta was stained by Sudan IV, and was observed under light microscope.
• blood fat assay: TC, TG, HDL-C, and LDL-C concentrations in serum were determined by applying Olympus Au2700 fully automatic biochemical appearance. • serum inflammatory markers assay: hs-CRP and sCD40L concentrations were determined by applying double antibody sandwich ELISA, in accordance with ELISA kit operating instruction (hs-CRP ELISA kit bought from Herrenberg company, Germany; sCD40L ELISA kit bought from Bender Medsystems company, Austria). • real-time quantitative PCR analysis was carried out on expression of CD36, perilipin, ABCA1, LXRα, MMP-9 and NF-κ B mRNA in apo E^−/^− mouse aorta (a reference method: Zhang Yiguan, Li Xiaohui, Fan Jishan, Zhang Haigang, Li Shuhui, Liao Wenqiang, Pang Yan, Jia Yi. Total panax notoginsenosides suppress atherosclerosis formation in rats by means of antiinflammatory and blood fat regulating action. Progress in Modern Biomedicine. […]

[2] = C-K high dose 50.0 mg/kg/day gavage
[3] = C-K middle dose 25.0 mg/kg/day gavage
[4] = simvastatin 10.0 mg/kg/day gavage

## CC(C)=CCC[C@](C)(OC1OC(CO)C(O)C(O)C1O)C1CC[C@]2(C)C1[C@H](O)CC1[C@@]3(C)CC[C@H](O)C(C)(C)C3CC[C@]12C (stereo partly drawn) [C-K, 20-O-β-D-glucopyranosyl 20-(S)-protopanaxadiol]
NF-κB mRNA; [2]
  expression of NF-κB mRNA in aorta (relative concentrations): 0.69 ± 0.16^b
NF-κB mRNA; C-K low dose 12.5 mg/kg/day gavage, model 1.27 ± 0.18
  expression of NF-κB mRNA in aorta (relative concentrations): 0.90 ± 0.19^b
NF-κB mRNA; [3]
  expression of NF-κB mRNA in aorta (relative concentrations): 0.78 ± 0.23^b
ABCA1 mRNA; [2]
  expression of ABCA1 mRNA in aorta (relative concentrations): 1.34 ± 0.13^b
ABCA1 mRNA; C-K low dose 12.5 mg/kg/day gavage, model 0.65 ± 0.18
  expression of ABCA1 mRNA in aorta (relative concentrations): 1.08 ± 0.15^b
ABCA1 mRNA; [3]
  expression of ABCA1 mRNA in aorta (relative concentrations): 1.19 ± 0.18^b
[1]; [2]
  CA (aortic root collagen area): 0.69 ± 0.13^b mm^2
  CA/CVA (corrected collagen area): 42.40 ± 6.74^b %
  CVA (vessel cross section area): 1.62 ± 0.12 mm^2
  LCA (lipid core area): 0.21 ± 0.03^b mm^2
  LCA/PA (corrected lipid core area): 40.01 ± 1.94^b %
  PA (plaque area): 0.52 ± 0.10^b mm^2
  PA/CVA (corrected plaque area): 32.29 ± 6.29^b %
  mFCT (minimal fibrous cap thickness): 30.65 ± 1.37^b μm
[1]; C-K low dose 12.5 mg/kg/day gavage, model 0.39 ± 0.13
  CA (aortic root collagen area): 0.56 ± 0.14^b mm^2
[1]; C-K low dose 12.5 mg/kg/day gavage, model 0.44 ± 0.05
  LCA (lipid core area): 0.32 ± 0.05^b mm^2
[1]; C-K low dose 12.5 mg/kg/day gavage, model 0.90 ± 0.12
  PA (plaque area): 0.78 ± 0.13^a mm^2
[1]; C-K low dose 12.5 mg/kg/day gavage, model 1.70 ± 0.19
  CVA (vessel cross section area): 1.68 ± 0.16 mm^2
[1]; C-K low dose 12.5 mg/kg/day gavage, model 20.40 ± 3.31
  mFCT (minimal fibrous cap thickness): 28.48 ± 1.89^b μm
[1]; C-K low dose 12.5 mg/kg/day gavage, model 22.60 ± 5.41
  CA/CVA (corrected collagen area): 33.33 ± 4.37^b %
[1]; C-K low dose 12.5 mg/kg/day gavage, model 48.28 ± 2.71
  LCA/PA (corrected lipid core area): 41.03 ± 1.32^b %
[1]; C-K low dose 12.5 mg/kg/day gavage, model 53.82 ± 10.02
  PA/CVA (corrected plaque area): 46.43 ± 7.38^a %
[1]; [3]
  CA (aortic root collagen area): 0.62 ± 0.09^b mm^2
  CA/CVA (corrected collagen area): 36.08 ± 4.82^b %
  CVA (vessel cross section area): 1.71 ± 0.14 mm^2
  LCA (lipid core area): 0.29 ± 0.05^b mm^2
  LCA/PA (corrected lipid core area): 40.33 ± 1.18^b %
  PA (plaque area): 0.72 ± 0.12^a mm^2
  PA/CVA (corrected plaque area): 42.26 ± 8.35^a %
  mFCT (minimal fibrous cap thickness): 30.44 ± 1.75^b μm

## CCC(C)(C)C(=O)O[C@H]1C[C@@H](C)C=C2C=C[C@H](C)[C@H](CC[C@@H]3C[C@@H](O)CC(=O)O3)[C@H]21 [simvastatin, reference compound]
NF-κB mRNA; [4]
  expression of NF-κB mRNA in aorta (relative concentrations): 0.89 ± 0.16^b
ABCA1 mRNA; [4]
  expression of ABCA1 mRNA in aorta (relative concentrations): 0.78 ± 0.12^a
[1]; [4]
  CA (aortic root collagen area): 0.57 ± 0.08^a mm^2
  CA/CVA (corrected collagen area): 34.73 ± 4.49^b %
  CVA (vessel cross section area): 1.65 ± 0.11 mm^2
  LCA (lipid core area): 0.32 ± 0.04^b mm^2
  LCA/PA (corrected lipid core area): 43.39 ± 4.01^b %
  PA (plaque area): 0.74 ± 0.17 mm^2
  PA/CVA (corrected plaque area): 44.70 ± 8.44^a %
  mFCT (minimal fibrous cap thickness): 27.72 ± 2.30^b μm
